{"source": "patent US20230140522A1", "about": "“COMPOSITION FOR AMELIORATING OR PREVENTING DECREASES IN BONE STRENGTH” (priority 2020, published 2023)", "key": {"[1]": {"system": "osteoprogenitor cell MC3T3-E1", "experiment": "Alkaline phosphatase (osteoblast differentiation marker) activity after ornithine addition, MC3T3-E1", "assay_type": "cell-based", "conditions": "7 days culture, vs no addition of ornithine", "method": "The cells were placed in a T-75 flask using a medium and cultured in a CO2 incubator (5% CO2, 37° C.). The medium was changed every other day, and the cells were collected when they reached 80% confluence and used for the test.\n(§1) The cells were adjusted with medium to 1.2x10^5 cells/0.2 mL/well and seeded in a 48-well plate. […] After culturing for 7 days, the cells were washed once with PBS for ALP activity measurement and then cryopreserved together with the plate. In addition, after culturing for 14 days, the culture supernatant was sampled for measurement of the amount of osteocalcin used in the below-mentioned Experimental Example 2, and cryopreserved. The test was performed with n=5 and the medium was changed every 3-4 days.\nThe cells were washed with PBS and lysed with 60 µL/well of cell lysing agent (Cell-LyEX1 containing 2 mM PMSF). After stirring the plate at room temperature for 30 min, the supernatant was diluted 5-fold and the obtained solution was used as a sample for measurement. ALP activity in the cells was measured by LabAssay ALP. With this kit, ALP activity was measured from the amount of p-nitrophenol per unit amount of protein produced within a given period of time. The amount of protein in the solution was measured using Micro BCA Protein Assay Reagent Kit.\n(§2) The test was a two-sided test with Student’s t-test, and P<0.05 (less than 5% of null hypothesis) or more was judged as significant difference. The data in the graph is shown in mean±standard error."}, "[2]": {"system": "osteoprogenitor cell MC3T3-E1", "experiment": "Osteocalcin (osteoblast differentiation marker) production amount after ornithine addition, MC3T3-E1", "assay_type": "cell-based", "conditions": "ornithine 5.0 mg/mL, 14 days culture, culture supernatant, vs no addition of ornithine", "method": "as §1\nFor the measurement of the amount of osteocalcin in the culture supernatant, the supernatant was diluted 10-fold and the measurement was performed using Mouse Osteocalcin EIA kit.\nas §2"}, "[3]": {"system": "osteoprogenitor cell MC3T3-E1", "experiment": "Alkaline phosphatase activity after ornithine addition, MC3T3-E1, influence of BMP-2 concentration", "assay_type": "cell-based", "conditions": "ornithine 5 mg/mL, 7 days, vs ornithine no addition", "method": "The cells were placed in a 10 cm petri dish using a medium and cultured in a CO2 incubator (5% CO2, 37° C.). The medium was changed every other day, and the cells were collected when they reached 80% confluence and used for the test.\nThe cells were adjusted with medium to 1.2x10^5 cells/0.2 mL/well and seeded in a 48-well plate. […] After 7 days, the cells were washed once with PBS, 50 µL of 0.1% Triton-X was added, and the mixture was further sonicated for 1 min to prepare a cell lysate. The test was performed with n=4 and the medium was changed every 3-4 days.\nALP activity of the above-mentioned cell lysate was measured by LabAssay ALP. With this kit, ALP activity was measured from the amount of p-nitrophenol per unit amount of protein produced within a given period of time. The amount of protein in the solution was measured using Micro BCA Protein Assay Reagent Kit.\nas §2"}, "[4]": {"system": "osteoclast progenitor cell RAW264", "experiment": "Osteoclast number measurement (TRAP staining) after ornithine addition, RAW264", "assay_type": "cell-based", "conditions": "50 ng/mL RANKL, 7 days, vs ornithine non-addition", "method": "The cells were placed in a T-75 flask using a medium and cultured in a CO2 incubator (5% CO2, 37° C.). The medium was changed every other day, and the cells were collected when they reached 80% confluence and used for the test. Cells were prepared in a test medium at 3x10^3 cells/0.1 mL/well and seeded in a 96 well plate. […] After culturing for 7 days, TRAP staining was performed, and TRAP staining-positive and multinucleated cells were counted, based on which the ability to suppress differentiation into osteoclasts was examined by comparison. The medium was changed every 3-4 days. The test was performed with n=5. The test was a two-sided test with Student’s t-test, and P<0.05 (less than 5% of null hypothesis) or more was judged as significant difference. The data in the graph is shown in mean±standard error."}, "[5]": {"system": "osteoporosis-disuse muscle atrophy simultaneous onset mouse model", "experiment": "Gastrocnemius muscle weight, osteoporosis-disuse muscle atrophy simultaneous onset mouse model", "assay_type": "in vivo", "conditions": "OVX mice with cast fixation, ornithine 1% blended feed, vs OVX (ornithine non-administration with cast fixation) group"}}}
{"smiles": "Cl.NCCC[C@H](N)C(=O)O", "note": "[ornithine, L-Ornithine Monohydrochloride]", "values": [{"measurement": "alkaline phosphatase activity", "setting": "[1]; ornithine 0.2 mg/mL", "result": "significantly increased"}, {"measurement": "alkaline phosphatase activity", "setting": "[1]; ornithine 1.0 mg/mL", "result": "significantly increased"}, {"measurement": "alkaline phosphatase activity", "setting": "[1]; ornithine 5.0 mg/mL", "result": "significantly increased"}, {"measurement": "osteocalcin production amount", "setting": "[2]", "result": "significantly increased"}, {"measurement": "alkaline phosphatase activity", "setting": "[3]; BMP-2 50 ng/mL", "result": "significantly increased"}, {"measurement": "alkaline phosphatase activity", "setting": "[3]; BMP-2 100 ng/mL", "result": "significantly increased"}, {"measurement": "alkaline phosphatase activity", "setting": "[3]; BMP-2 200 ng/mL", "result": "significantly increased"}, {"measurement": "number of osteoclasts", "setting": "[4]; ornithine 0.02 mg/mL", "result": "decreased"}, {"measurement": "number of osteoclasts", "setting": "[4]; ornithine 0.1 mg/mL", "result": "significantly decreased"}, {"measurement": "number of osteoclasts", "setting": "[4]; ornithine 0.5 mg/mL", "result": "significantly decreased"}, {"measurement": "gastrocnemius muscle weight (per body weight)", "setting": "[5]", "result": "increased"}]}
